Data published in ChEMBL document CHEMBL4257529, “Antifungal amphiphilic kanamycins: new life for an old drug” (Medchemcomm, 2018).
In brackets after ≈: the same amount, converted by molar mass.

Key:
Type in all cases: functional
Fusarium graminearum [1] = test: Antifungal activity against Fusarium graminearum B4-5A strain E after 48 hrs by microdilution assay
Fusarium graminearum [2] = test: Synergistic antifungal activity against Fusarium graminearum B4-5A strain B assessed as fluconazole MIC after 48 hrs by microdilution assay
Fusarium graminearum [3] = test: Synergistic antifungal activity against Fusarium graminearum B4-5A strain D assessed as fluconazole MIC after 48 hrs by microdilution assay
Fusarium graminearum [4] = test: Synergistic antifungal activity against Fusarium graminearum infected in wheat plant assessed as fusarium head blight incidence at 360 mg/L in presence of 0.512 L/ha caramba (reference value: 70%)
Fusarium graminearum [5] = test: Antifungal activity against Fusarium graminearum B4-5A strain B after 48 hrs by microdilution assay
Fusarium graminearum [6] = test: Synergistic antifungal activity against Fusarium graminearum B4-5A strain B in presence of fluconazole after 48 hrs by checkerboard method
Cryptococcus neoformans = test: Antifungal activity against Cryptococcus neoformans 94-2586
Fusarium graminearum [7] = test: Synergistic antifungal activity against Fusarium graminearum B4-5A strain C assessed as fluconazole MIC after 48 hrs by microdilution assay
Fusarium graminearum [8] = test: Synergistic antifungal activity against Fusarium graminearum B4-5A strain D in presence of fluconazole after 48 hrs by checkerboard method
Fusarium graminearum [9] = test: Synergistic antifungal activity against Fusarium graminearum infected in wheat plant assessed as fusarium head blight index at 360 mg/L in presence of 0.438 L/ha prosaro 421 SC (reference value: 53%)
Fusarium graminearum [10] = test: Synergistic antifungal activity against Fusarium graminearum B4-5A strain C in presence of fluconazole after 48 hrs by microdilution assay
Fusarium graminearum [11] = test: Synergistic antifungal activity against Fusarium graminearum infected in wheat plant assessed as spikelet curling at 360 mg/L in presence of 8 ml/L pyraclostrobin (reference value: 51.4%)
Fusarium graminearum [12] = test: Antifungal activity against Fusarium graminearum infected in wheat plant assessed as fusarium head blight index at 360 mg/L (reference value: 53%)
Fusarium graminearum [13] = test: Antifungal activity against Fusarium graminearum B4-5A strain D after 48 hrs by microdilution assay

CCCCCCCCS(=O)(=O)OC[C@H]1O[C@H](O[C@@H]2[C@@H](O)[C@H](O[C@H]3O[C@H](CN)[C@@H](O)[C@H](O)[C@H]3O)[C@@H](N)C[C@H]2N)[C@H](O)[C@@H](N)[C@@H]1O
MIC (Fusarium graminearum [1]): 16 µg/mL (≈ 24.2 µM)
MIC (Fusarium graminearum [2]): 6.25 µg/mL
MIC (Fusarium graminearum [3]): 0.195 µg/mL
Activity (Fusarium graminearum [4]): 13%
MIC (Fusarium graminearum [5]): 16 µg/mL (≈ 24.2 µM)
fractional inhibitory concentration index (FICI) (Fusarium graminearum [6]): 0.5
MIC (Cryptococcus neoformans): 3.9 to 7.8 µg/mL (≈ 5.9 to 11.8 µM)
MIC (Fusarium graminearum [7]): 0.25 µg/mL
fractional inhibitory concentration index (FICI) (Fusarium graminearum [8]): 0.5
Activity_index (Fusarium graminearum [9]): 5%
MIC (Fusarium graminearum [10]): 4 µg/mL
Activity (Fusarium graminearum [11]): 1.5%
Activity_index (Fusarium graminearum [12]): 8%
MIC (Fusarium graminearum [13]): 16 µg/mL (≈ 24.2 µM)
